Data: patent US8415469B2, “Compounds and methods for kinase modulation, and indications therefor” (Plexxikon Inc., priority 2005, dated 2013)

Legend:
Assay type in all cases: biochemical
B-Raf = biological target: T1, B-Raf (Homo sapiens, UniProt P15056); experiment: AlphaScreen kinase assay, B-Raf; conditions: read-out: IC50, activity toward kinase B-Raf
T1 construct: purchased Upstate Biotechnology

B-Raf V600E = biological target: T2, B-Raf V600E (Homo sapiens, UniProt P15056, V600E); experiment: AlphaScreen kinase assay, B-Raf V600E; conditions: read-out: IC50, activity toward kinase B-Raf V600E
T2 construct: P4254. pFastBacBD-CDC37 BRAF D437-K722-X, V600E; His6 with pFastBac HT leader (TEV site) (N); made in house; host or cells: Sf9 (baculovirus; chaperone CDC37 co-expressed)

c-Raf-1 = biological target: T3, c-Raf-1 (Homo sapiens, UniProt P04049); experiment: AlphaScreen kinase assay, c-Raf-1; conditions: read-out: IC50, activity toward kinase c-Raf-1
T3 construct: purchased Upstate Biotechnology

FGFR1 = biological target: T4, FGFR1 (Homo sapiens, UniProt P11362, C488A/C584S); experiment: AlphaScreen kinase assay, FGFR1; conditions: read-out: IC50, activity toward kinase FGFR
T4 construct: P1351.pET N6 BI-PTP FGFR A458-E765-X C488A, C584S; made in house; host or cells: E. coli (PTP1B co-expressed)

Kit = biological target: T5, Kit (Homo sapiens, UniProt P10721); experiment: AlphaScreen kinase assay, Kit; conditions: read-out: IC50, activity toward kinase Kit
T5 construct: P1332.N6 BI PTP KIT M552-K948-X COD; His6 (N); made in house; host or cells: E. coli (PTP1B co-expressed)

TEC = biological target: T6, TEC (Homo sapiens, UniProt P42680); experiment: AlphaScreen kinase assay, TEC; conditions: read-out: IC50, activity toward kinase TEC
T6 sequence (P42680 1-631): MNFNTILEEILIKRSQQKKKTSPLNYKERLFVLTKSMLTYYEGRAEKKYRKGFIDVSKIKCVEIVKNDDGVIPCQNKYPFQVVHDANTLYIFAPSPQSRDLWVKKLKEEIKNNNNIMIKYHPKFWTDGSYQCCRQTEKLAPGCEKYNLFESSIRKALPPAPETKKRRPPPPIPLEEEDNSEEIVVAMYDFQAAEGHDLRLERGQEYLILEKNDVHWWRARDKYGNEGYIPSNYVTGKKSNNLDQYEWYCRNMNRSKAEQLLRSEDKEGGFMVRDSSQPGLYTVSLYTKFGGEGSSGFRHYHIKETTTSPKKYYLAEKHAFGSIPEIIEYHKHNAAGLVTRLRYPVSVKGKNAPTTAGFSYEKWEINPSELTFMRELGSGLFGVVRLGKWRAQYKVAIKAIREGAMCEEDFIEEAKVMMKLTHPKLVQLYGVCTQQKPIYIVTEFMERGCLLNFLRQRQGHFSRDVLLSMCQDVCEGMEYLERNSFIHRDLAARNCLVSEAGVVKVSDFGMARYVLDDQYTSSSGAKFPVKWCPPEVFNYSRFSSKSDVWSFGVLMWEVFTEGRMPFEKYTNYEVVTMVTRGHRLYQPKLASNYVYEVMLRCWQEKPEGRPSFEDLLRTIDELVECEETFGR
From the text: (§1) AlphaScreen assay was used to screen additional kinases. The assay is similarly dependent on the phosphorylation of a peptide substrate. In this assay, an antibody that recognizes phosphorylated substrate is bound to an acceptor bead. The peptide substrate is attached to biotin, which binds to a donor head that contains streptavidin. Thus phosphorylated substrate is bound by antibody and streptavidin, bringing the donor and acceptor heads into close proximity when kinase is not inhibited. The donor produces singlet oxygen which results in emission from the acceptor when they are in close proximity. Conversely, when kinase is inhibited, the donor and acceptor beads are not associated and the emission from the acceptor is reduced.
(§2) AlphaScreen assays were done using compounds dissolved in DMSO to a concentration of 20 mM. The compounds were diluted accordingly to the desired final concentrations in each sample well, using 1:3 serial dilution for a total of 8 concentration points.

Kdr = biological target: T7, Kdr (Homo sapiens, UniProt P35968); experiment: Z'-Lyte FRET kinase assay (Invitrogen), Kdr; conditions: read-out: IC50, activity toward kinase Kdr
T7 construct: purchased Invitrogen (assay run by Invitrogen)

IGF1R = IGF1R (Homo sapiens, UniProt P08069); experiment: AlphaScreen kinase assay, IGF1R; conditions: read-out: IC50, activity toward kinase IGF1R
Procedure: AlphaScreen assays were done using compounds dissolved in DMSO to a concentration of 20 mM. The compounds were diluted accordingly to the desired final concentrations in each sample well, using 1:3 serial dilution for a total of 8 concentration points. Plates were prepared such that each kinase reaction is 20 μl in 1× kinase buffer, 5% DMSO and 10 μM ATP. After incubation of the kinase reaction for 1 hour at room temperature, 5 μl of donor beads in stop buffer (50 mM EDTA in 1× kinase buffer) was added, the sample was mixed and incubated for 20 minutes at room temperature before adding 5 μl of acceptor beads in stop buffer. The samples were incubated for 60 minutes at room temperature and the signal per well was read on AlphaQuest reader.

IKK beta = biological target: T8, IKK beta (Homo sapiens, UniProt O14920); experiment: AlphaScreen kinase assay, IKK beta; conditions: read-out: IC50, activity toward kinase IKK beta
T8 sequence (O14920 1-756): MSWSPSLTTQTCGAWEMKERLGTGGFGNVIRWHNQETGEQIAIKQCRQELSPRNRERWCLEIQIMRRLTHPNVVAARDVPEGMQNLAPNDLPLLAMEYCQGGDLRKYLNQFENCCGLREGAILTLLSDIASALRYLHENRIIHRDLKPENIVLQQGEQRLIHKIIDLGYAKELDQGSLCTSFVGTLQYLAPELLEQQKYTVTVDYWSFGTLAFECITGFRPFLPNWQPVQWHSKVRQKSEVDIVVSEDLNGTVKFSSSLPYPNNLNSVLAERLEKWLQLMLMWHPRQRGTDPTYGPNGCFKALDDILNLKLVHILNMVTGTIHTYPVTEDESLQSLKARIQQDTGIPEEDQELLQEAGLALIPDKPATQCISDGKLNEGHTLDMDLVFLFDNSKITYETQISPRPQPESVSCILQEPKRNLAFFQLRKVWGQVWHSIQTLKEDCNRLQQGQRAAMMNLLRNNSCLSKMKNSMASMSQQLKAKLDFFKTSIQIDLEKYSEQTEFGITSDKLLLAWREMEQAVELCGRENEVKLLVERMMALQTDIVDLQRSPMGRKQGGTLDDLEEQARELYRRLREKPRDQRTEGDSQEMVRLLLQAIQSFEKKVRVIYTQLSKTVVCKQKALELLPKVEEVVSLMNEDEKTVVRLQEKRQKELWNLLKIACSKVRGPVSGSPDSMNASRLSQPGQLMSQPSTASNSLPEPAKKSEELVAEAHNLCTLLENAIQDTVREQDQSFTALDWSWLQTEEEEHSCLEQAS

Jak3 = biological target: T9, Jak3 (Homo sapiens, UniProt P52333); experiment: AlphaScreen kinase assay, Jak3; conditions: read-out: IC50, activity toward kinase Jak3
T9 sequence (P52333 1-1124): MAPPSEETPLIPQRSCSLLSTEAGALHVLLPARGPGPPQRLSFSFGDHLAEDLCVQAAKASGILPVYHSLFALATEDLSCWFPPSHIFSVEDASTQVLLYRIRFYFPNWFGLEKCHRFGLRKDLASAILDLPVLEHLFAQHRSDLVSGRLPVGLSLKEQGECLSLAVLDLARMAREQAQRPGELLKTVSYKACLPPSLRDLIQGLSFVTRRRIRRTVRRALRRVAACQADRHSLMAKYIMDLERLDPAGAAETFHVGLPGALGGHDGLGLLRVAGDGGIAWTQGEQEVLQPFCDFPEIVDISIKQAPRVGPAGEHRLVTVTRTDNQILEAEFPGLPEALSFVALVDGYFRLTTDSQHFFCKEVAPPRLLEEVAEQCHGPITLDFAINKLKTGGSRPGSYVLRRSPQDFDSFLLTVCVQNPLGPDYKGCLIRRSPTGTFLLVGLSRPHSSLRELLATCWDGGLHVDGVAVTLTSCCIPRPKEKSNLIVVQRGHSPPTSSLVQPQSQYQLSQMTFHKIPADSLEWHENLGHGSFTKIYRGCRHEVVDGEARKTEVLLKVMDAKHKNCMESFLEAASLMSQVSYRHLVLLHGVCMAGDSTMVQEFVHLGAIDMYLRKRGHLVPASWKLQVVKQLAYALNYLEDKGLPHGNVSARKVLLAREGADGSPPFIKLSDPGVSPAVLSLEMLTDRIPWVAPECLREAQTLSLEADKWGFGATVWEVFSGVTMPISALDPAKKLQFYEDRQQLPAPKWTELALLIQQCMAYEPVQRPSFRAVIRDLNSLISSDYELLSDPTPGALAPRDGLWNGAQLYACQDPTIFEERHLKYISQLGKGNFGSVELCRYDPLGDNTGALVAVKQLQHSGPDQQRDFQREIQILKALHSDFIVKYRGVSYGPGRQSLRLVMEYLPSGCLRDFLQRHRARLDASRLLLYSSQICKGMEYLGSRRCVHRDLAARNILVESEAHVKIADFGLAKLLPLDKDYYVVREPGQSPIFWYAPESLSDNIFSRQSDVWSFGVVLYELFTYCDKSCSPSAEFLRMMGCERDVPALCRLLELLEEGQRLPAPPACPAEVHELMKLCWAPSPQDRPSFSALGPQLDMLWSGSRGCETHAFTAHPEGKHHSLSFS
From the text: as §1, §2

Jnk3 = biological target: T10, Jnk3 (Homo sapiens, UniProt P53779); experiment: AlphaScreen kinase assay, Jnk3; conditions: read-out: IC50, activity toward kinase Jnk3
T10 construct: purchased Upstate Biotechnology

Met = biological target: T11, Met (Homo sapiens, UniProt P08581); experiment: AlphaScreen kinase assay, Met; conditions: read-out: IC50, activity toward kinase Met
T11 construct: P1818.pETN6 BI-PTP MET G1056-G1364-X WT; His6 (N); made in house; host or cells: E. coli (PTP1B co-expressed)
How it was run: (§3)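 Emission from acceptor beads reports phosphorylated biotin-peptide bridging antibody-coated acceptor and streptavidin donor beads; loss of signal reflects kinase inhibition. Eight-point, threefold dilution series prepared from 20 mM DMSO stocks.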

Ret = biological target: T12, Ret (Homo sapiens, UniProt P07949); experiment: AlphaScreen kinase assay, Ret; conditions: read-out: IC50, activity toward kinase Ret
T12 construct: P1378.pET-SF BI-PTP RET H661-R1012 HIS; made in house
T12 sequence (P07949 with tags, fused parts or gaps): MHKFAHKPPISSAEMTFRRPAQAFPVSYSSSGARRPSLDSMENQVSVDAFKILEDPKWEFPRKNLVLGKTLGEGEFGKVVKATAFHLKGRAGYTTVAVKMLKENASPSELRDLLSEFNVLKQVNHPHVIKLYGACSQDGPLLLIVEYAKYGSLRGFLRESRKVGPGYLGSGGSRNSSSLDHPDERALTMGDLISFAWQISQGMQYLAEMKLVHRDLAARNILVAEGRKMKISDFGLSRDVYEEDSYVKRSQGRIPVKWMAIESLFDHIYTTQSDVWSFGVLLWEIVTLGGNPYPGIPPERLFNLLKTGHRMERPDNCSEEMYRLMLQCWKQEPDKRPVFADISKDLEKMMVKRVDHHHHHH

Zap70 = biological target: T13, Zap70 (Homo sapiens, UniProt P43403); experiment: AlphaScreen kinase assay, Zap70; conditions: read-out: IC50, activity toward kinase Zap70
T13 construct: P1868.pFastBac1 ZAP70 D327-G606 HIS, WT; His7 (HHHHHHH) (C); made in house
T13 sequence (P43403 with tags, fused parts or gaps): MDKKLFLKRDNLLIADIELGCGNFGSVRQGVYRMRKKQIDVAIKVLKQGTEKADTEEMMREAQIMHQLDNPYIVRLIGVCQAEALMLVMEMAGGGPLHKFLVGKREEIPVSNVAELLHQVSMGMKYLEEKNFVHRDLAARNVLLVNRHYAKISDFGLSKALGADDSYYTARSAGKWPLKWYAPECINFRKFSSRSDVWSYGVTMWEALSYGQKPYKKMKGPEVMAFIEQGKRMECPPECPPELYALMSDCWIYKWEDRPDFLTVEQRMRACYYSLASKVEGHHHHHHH
How it was run: as §3

Itk = biological target: T14, Itk (Homo sapiens, UniProt Q08881); experiment: AlphaScreen kinase assay, Itk; conditions: read-out: IC50, activity toward kinase Itk
T14 sequence (Q08881 1-620): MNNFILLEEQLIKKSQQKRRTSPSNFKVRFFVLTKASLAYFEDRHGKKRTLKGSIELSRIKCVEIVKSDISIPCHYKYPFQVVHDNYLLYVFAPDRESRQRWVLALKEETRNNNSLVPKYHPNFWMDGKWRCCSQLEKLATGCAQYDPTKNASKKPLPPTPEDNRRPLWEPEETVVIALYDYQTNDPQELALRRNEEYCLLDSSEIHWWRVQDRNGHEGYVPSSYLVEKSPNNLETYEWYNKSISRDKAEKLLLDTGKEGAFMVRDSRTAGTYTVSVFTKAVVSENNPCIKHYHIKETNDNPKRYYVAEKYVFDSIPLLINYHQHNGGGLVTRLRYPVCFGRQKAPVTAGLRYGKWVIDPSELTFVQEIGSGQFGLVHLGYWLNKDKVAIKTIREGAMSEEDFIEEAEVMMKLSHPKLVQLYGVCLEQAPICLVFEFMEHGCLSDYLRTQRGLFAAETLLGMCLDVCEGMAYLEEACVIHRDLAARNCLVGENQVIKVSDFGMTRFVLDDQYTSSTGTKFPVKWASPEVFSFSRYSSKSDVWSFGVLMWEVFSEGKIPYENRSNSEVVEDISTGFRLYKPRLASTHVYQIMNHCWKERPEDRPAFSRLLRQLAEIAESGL
From the text: as §1, §2

Fms = biological target: T15, Fms (Homo sapiens, UniProt P07333); experiment: AlphaScreen kinase assay, Fms; conditions: read-out: IC50, activity toward kinase Fms
T15 construct: purchased Upstate Biotechnology

Measured: IC50

IGF1R, sequence (P08069 31-1367): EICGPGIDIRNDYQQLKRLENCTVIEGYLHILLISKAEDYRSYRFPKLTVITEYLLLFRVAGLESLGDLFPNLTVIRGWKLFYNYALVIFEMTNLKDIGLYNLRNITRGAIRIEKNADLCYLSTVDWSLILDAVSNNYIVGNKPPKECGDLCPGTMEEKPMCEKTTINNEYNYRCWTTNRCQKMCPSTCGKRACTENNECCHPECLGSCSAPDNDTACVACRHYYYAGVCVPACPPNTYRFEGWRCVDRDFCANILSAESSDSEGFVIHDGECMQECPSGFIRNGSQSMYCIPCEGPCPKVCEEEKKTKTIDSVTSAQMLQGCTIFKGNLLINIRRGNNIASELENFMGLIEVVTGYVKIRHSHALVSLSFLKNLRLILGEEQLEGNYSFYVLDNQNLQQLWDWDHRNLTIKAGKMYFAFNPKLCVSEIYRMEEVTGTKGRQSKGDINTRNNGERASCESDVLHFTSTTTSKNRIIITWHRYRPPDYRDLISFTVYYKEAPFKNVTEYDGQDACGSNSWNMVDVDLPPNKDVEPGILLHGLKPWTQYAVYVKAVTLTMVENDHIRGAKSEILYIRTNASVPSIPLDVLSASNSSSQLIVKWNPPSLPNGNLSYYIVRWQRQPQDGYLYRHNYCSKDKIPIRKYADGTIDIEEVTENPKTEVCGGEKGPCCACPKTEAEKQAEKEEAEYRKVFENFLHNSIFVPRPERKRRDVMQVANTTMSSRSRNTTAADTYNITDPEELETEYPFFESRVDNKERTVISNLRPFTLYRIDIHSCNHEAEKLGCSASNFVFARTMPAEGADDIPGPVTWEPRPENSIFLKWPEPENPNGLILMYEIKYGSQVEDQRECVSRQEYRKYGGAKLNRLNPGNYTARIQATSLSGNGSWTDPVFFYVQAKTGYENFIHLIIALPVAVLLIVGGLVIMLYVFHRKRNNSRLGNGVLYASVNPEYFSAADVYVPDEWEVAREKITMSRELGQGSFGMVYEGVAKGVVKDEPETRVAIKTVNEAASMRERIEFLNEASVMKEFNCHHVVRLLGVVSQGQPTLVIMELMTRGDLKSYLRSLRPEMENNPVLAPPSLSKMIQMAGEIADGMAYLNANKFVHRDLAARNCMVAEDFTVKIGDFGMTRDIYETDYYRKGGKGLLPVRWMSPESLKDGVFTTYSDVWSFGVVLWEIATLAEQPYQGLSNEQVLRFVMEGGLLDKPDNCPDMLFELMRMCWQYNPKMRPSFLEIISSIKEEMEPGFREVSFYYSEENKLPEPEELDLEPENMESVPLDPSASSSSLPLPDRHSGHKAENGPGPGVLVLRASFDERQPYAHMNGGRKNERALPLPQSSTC
T3 sequence (P04049 whole entry): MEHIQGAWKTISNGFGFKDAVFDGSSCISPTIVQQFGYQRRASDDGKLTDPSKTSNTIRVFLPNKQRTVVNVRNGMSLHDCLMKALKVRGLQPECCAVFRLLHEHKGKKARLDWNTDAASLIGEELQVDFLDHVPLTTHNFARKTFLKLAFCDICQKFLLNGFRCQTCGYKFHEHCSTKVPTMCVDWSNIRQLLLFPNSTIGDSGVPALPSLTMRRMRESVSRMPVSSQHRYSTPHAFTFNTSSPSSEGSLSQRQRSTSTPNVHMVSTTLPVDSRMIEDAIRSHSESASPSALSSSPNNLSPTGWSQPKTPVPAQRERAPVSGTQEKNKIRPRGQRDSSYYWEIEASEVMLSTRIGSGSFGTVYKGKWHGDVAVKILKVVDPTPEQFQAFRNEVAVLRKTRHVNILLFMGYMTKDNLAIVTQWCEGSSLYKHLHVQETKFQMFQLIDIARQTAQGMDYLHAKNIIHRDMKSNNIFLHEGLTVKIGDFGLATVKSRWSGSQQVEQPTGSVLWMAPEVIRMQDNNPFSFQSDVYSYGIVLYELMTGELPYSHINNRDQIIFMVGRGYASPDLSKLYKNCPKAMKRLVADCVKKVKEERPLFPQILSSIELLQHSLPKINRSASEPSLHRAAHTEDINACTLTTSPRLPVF
T4 sequence (P11362 458-765 C488A/C584S): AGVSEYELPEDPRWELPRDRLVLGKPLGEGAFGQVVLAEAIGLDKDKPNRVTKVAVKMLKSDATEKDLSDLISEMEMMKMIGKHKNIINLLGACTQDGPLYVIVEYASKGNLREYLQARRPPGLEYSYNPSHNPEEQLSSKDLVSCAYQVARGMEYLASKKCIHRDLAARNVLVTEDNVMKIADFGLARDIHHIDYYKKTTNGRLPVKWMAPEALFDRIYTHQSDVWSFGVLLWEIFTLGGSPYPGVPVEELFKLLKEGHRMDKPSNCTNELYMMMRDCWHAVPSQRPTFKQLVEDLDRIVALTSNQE
T1 sequence (P15056 whole entry): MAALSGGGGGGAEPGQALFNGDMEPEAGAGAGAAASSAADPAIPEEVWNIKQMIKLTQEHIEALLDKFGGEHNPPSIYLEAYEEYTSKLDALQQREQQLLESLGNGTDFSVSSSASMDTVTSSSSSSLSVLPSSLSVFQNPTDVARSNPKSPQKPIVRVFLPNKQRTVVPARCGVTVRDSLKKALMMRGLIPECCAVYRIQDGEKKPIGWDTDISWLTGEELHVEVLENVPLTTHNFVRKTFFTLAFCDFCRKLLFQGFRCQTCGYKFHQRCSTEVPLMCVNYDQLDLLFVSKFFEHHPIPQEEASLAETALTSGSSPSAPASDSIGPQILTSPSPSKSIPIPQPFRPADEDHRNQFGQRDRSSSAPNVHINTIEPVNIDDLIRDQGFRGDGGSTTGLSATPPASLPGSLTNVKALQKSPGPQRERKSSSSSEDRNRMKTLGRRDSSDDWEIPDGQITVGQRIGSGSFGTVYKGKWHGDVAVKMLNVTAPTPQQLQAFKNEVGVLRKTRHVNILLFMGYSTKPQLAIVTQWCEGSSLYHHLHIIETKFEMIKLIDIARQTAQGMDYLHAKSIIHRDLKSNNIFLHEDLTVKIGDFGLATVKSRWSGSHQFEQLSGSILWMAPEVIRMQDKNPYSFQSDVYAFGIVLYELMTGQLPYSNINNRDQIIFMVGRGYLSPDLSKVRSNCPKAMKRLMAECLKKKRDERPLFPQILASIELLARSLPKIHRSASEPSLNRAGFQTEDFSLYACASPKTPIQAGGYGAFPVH
T2 sequence (P15056 with tags, fused parts or gaps V600E): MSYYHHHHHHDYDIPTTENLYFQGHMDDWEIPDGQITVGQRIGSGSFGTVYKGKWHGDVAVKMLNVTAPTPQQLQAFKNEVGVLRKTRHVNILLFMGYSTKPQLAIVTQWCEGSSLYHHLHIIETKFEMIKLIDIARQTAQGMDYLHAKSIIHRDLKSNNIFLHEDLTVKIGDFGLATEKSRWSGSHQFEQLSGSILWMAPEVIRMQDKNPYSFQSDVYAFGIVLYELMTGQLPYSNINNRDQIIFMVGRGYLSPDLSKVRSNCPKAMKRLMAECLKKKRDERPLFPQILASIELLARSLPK
T15 sequence (P07333 20-972): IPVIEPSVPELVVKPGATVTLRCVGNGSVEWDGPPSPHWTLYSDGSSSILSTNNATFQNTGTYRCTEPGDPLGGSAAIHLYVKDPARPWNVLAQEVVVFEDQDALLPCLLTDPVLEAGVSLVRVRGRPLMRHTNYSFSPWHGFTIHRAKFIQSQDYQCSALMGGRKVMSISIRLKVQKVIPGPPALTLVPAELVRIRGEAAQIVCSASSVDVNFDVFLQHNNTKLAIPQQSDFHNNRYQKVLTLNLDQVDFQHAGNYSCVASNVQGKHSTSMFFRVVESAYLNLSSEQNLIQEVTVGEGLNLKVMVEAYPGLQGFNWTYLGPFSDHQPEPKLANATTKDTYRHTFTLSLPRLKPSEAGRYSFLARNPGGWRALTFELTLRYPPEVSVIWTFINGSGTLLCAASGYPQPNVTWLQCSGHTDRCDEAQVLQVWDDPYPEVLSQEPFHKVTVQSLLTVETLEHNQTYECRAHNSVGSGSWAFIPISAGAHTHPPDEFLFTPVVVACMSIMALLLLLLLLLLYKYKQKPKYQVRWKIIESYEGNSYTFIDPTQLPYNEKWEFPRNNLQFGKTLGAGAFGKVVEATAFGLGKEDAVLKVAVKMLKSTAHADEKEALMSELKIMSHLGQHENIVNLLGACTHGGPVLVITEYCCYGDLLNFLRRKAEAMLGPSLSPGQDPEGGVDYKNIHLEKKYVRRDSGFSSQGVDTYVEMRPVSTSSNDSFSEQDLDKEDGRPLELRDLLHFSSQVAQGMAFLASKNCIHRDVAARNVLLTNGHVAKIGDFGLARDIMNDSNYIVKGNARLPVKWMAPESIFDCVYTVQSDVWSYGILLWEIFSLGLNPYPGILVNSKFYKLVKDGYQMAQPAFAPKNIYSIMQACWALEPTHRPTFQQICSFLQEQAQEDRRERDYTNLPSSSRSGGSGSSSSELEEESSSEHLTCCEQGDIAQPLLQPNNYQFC
T5 sequence (P10721 with tags, fused parts or gaps): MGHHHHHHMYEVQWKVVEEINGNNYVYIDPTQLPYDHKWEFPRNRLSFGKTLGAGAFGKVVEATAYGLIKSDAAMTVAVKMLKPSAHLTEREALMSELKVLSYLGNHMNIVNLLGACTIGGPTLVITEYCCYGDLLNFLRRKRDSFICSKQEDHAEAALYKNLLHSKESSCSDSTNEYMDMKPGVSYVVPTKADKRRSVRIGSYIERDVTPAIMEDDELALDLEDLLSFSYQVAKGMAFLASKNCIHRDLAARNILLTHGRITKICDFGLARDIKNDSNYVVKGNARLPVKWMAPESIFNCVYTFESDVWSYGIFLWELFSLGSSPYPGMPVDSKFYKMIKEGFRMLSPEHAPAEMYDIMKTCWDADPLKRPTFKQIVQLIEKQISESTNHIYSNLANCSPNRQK
T11 sequence (P08581 with tags, fused parts or gaps): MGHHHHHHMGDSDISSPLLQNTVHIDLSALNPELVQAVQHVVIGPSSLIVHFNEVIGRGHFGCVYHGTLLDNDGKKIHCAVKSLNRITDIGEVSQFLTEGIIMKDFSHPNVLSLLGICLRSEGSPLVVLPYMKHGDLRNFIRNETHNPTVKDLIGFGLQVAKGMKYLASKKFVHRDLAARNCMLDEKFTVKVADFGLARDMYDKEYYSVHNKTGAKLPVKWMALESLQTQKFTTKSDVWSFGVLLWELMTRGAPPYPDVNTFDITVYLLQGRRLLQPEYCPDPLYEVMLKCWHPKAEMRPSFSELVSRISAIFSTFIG

COc1ccc(S(=O)(=O)Nc2ccc(F)c(C(=O)c3c[nH]c4ncc(Cl)cc34)c2F)cc1 [Compound P-0983, N-[3-(5-Chloro-1H-pyrrolo[2,3-b]pyridine-3-carbonyl)-2,4-difluoro-phenyl]-4-methoxy-benzenesulfonamide]
≤ 10 µM: B-Raf | B-Raf V600E | c-Raf-1 | FGFR1 | Kit | TEC

OCc1cccc(-c2ccnc3[nH]ccc23)c1 [Compound P-0084]
≤ 10 µM: Kdr | IGF1R | IKK beta | Jak3

CS(=O)(=O)Nc1cccc(-c2cnc3[nH]cc(C(=O)c4cc(O)ccc4F)c3c2)c1 [Compound P-0716, N-{3-[3-(2-Fluoro-5-hydroxy-benzoyl)-1H-pyrrolo[2,3-b]pyridin-5-yl]-phenyl}-methanesulfonamide]
≤ 10 µM: B-Raf | B-Raf V600E | c-Raf-1 | Jnk3 | Met | Ret | Zap70 | IGF1R | Itk

CS(=O)(=O)Nc1cccc(-c2cnc3[nH]ccc3c2)c1 [Compound P-1337]
≤ 10 µM: FGFR1 | Fms | IGF1R | Itk
